In patent USRE50715E1, “Synthetic biochemistry molecular purge valve module that maintain co-factor balance” (The Regents of the University of California, priority 2014, dated 2025):
Substitutions are numbered along the chain they refer to. Names and notes keep the numbering of the source.

Experiments:
[1] = molecular target: T1, L. lactis NADH oxidase (H2O forming), NoxE, SEQ ID NO: 10 (Lactococcus lactis, UniProt Q9CIG9); test: NoxE kinetics, monitoring the oxidation of NAD(P)H at 340 nm; assay type: biochemical
T1 sequence (Q9CIG9 1-446): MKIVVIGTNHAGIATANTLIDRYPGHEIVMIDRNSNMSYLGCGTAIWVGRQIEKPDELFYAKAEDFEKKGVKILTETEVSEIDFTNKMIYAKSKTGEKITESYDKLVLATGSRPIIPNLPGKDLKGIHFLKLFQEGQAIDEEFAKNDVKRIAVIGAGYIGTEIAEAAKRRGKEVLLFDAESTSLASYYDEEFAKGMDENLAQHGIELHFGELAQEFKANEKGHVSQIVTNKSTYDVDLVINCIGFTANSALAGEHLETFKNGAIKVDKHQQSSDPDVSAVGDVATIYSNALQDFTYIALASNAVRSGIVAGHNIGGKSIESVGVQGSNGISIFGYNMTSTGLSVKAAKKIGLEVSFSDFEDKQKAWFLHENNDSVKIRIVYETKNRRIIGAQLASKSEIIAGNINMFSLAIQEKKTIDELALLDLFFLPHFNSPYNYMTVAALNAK

[2] = molecular target: T2, G. stearothermophilus pyruvate dehydrogenase complex, engineered mutant (GsPDH-NADP, PDH^NADPH), E3 mutant E206V, G207R, A208K, S213R (E3^NADPH SEQ ID NO: 7); E1 (Geobacillus stearothermophilus, UniProt P11959, A208K/E206V/G188A/G192A/G207R/S213R); test: PDH kinetics, monitoring the reduction of NAD(P)^+ at 340 nm; assay type: biochemical
T2 construct: made in house; host or cells: E. coli
Procedure: (§1) The individual domains of G. stearothermophilus PDH were partially purified from E. coli lysates by heat prior to modification and reconstitution of the PDH complex. E1αβ, E2, or E3 containing lysates were incubated at 65° C. for 35 minutes to heat denature E. coli proteins followed by centrifugation at 30,000×g for 20 min to pellet the precipitated proteins. […] Next, the E2 domain was lipoated in the heated extract by the addition of 1 mM (±)-α-lipoic acid, 2 mM ATP, 3 mM MgCl2, and 50 μg of purified 6×His-LplA. The lipoation reaction was then allowed to proceed with gentle mixing overnight at 25° C., yielding lipoated E2 (E2lip). After lipoation, E1αβ, E2lip, and E3 were mixed in a 3:1:3 molar ratio and incubated for at least 1 hour at 25° C. to form the active GsPDH complex. The GsPDH complex was then isolated by ultracentrifugation (Beckman) for 4 hours at 95,000×g. […] The reconstituted complex was stored at 4° C. until use.

[3] = molecular target: T3, G. stearothermophilus pyruvate dehydrogenase complex (GsPDH-NAD+, PDH^NADH), wild type (E1a SEQ ID NO: 1, E1b SEQ ID NO: 2, E2 SEQ ID NO: 3, E3^NADH SEQ ID NO: (Geobacillus stearothermophilus, UniProt P11959)); test: as above; assay type: biochemical
T3 construct: made in house; host or cells: E. coli
Procedure: as §1

[4] = substrate: NC(=O)C1=CN([C@@H]2O[C@H](COP(=O)(O)OP(=O)(O)OC[C@H]3O[C@@H](n4cnc5c(N)ncnc54)[C@H](OP(=O)(O)O)[C@@H]3O)[C@@H](O)[C@H]2O)C=CC1; test: purified protein, by the assay type; settings: other: 100 mM tris-HCl pH 7.5, 5 mM MgCl2, 5 mM KCl, 0.2 mM NAD(P)H
[5] = substrate: NC(=O)C1=CN([C@@H]2O[C@H](COP(=O)(O)OP(=O)(O)OC[C@H]3O[C@@H](n4cnc5c(N)ncnc54)[C@H](O)[C@@H]3O)[C@@H](O)[C@H]2O)C=CC1; test: purified protein, by the assay type; settings: other: 100 mM tris-HCl pH 7.5, 5 mM MgCl2, 5 mM KCl, 0.2 mM NAD(P)H
[6] = substrate: NC(=O)c1ccc[n+]([C@@H]2O[C@H](COP(=O)(O)OP(=O)(O)OC[C@H]3O[C@@H](n4cnc5c(N)ncnc54)[C@H](OP(=O)(O)O)[C@@H]3O)[C@@H](O)[C@H]2O)c1; test: PDH kinetics, monitoring the reduction of NAD(P)^+ at 340 nm; assay type: biochemical, G. stearothermophilus; settings: other: 50 mM Tris pH 7.5, 5 mM MgCl2, 5 mM pyruvate, 1 mM CoA, 0.5 mM NAD(P)+
[7] = substrate: NC(=O)c1ccc[n+]([C@@H]2O[C@H](COP(=O)(O)OP(=O)(O)OC[C@H]3O[C@@H](n4cnc5c(N)ncnc54)[C@H](O)[C@@H]3O)[C@@H](O)[C@H]2O)c1; test: as above; assay type: biochemical, G. stearothermophilus; settings: other: 50 mM Tris pH 7.5, 5 mM MgCl2, 5 mM pyruvate, 1 mM CoA, 0.5 mM NAD(P)+
[8] = substrate: NC(=O)c1ccc[n+]([C@@H]2O[C@H](COP(=O)(O)OP(=O)(O)OC[C@H]3O[C@@H](n4cnc5c(N)ncnc54)[C@H](OP(=O)(O)O)[C@@H]3O)[C@@H](O)[C@H]2O)c1; test: cells, lysate or membranes named; settings: other: 50 mM Tris pH 7.5, 5 mM MgCl2, 5 mM pyruvate, 1 mM CoA, 0.5 mM NAD(P)+
[9] = substrate: NC(=O)c1ccc[n+]([C@@H]2O[C@H](COP(=O)(O)OP(=O)(O)OC[C@H]3O[C@@H](n4cnc5c(N)ncnc54)[C@H](O)[C@@H]3O)[C@@H](O)[C@H]2O)c1; test: cells, lysate or membranes named; settings: other: 50 mM Tris pH 7.5, 5 mM MgCl2, 5 mM pyruvate, 1 mM CoA, 0.5 mM NAD(P)+

In the case of `NC(=O)C1=CN([C@@H]2O[C@H](COP(=O)(O)OP(=O)(O)OC[C@H]3O[C@@H](n4cnc5c(N)ncnc54)[C@H](O)[C@@H]3O)[C@@H](O)[C@H]2O)C=CC1` [NADH], the “Kcat ratio, NADH vs NADPH” value ([1]; Kcat greater with NADH than NADPH) is reported as 248.8 times and the “kcat/Km ratio, NADH vs NADPH” value ([1]; kcat/Km greater with NADH than NADPH) is reported as 9900 times.

`NC(=O)c1ccc[n+]([C@@H]2O[C@H](COP(=O)(O)OP(=O)(O)OC[C@H]3O[C@@H](n4cnc5c(N)ncnc54)[C@H](OP(=O)(O)O)[C@@H]3O)[C@@H](O)[C@H]2O)c1` [NADP+] was tested, and the “kcat ratio, NADP^+ vs NAD+” value ([2]; kcat higher with NADP^+ than NAD+) was 7.3 times and the “kcat/Km ratio, NADP^+ vs NAD+” value ([2]; kcat/Km higher with NADP^+ than NAD+) was 21 times.

In the case of `NC(=O)c1ccc[n+]([C@@H]2O[C@H](COP(=O)(O)OP(=O)(O)OC[C@H]3O[C@@H](n4cnc5c(N)ncnc54)[C@H](O)[C@@H]3O)[C@@H](O)[C@H]2O)c1` [NAD+, nicotinamide adenine dinucleotide], the “kcat ratio, NAD^+ vs NADP^+” value ([3]; kcat higher with NAD^+ than NADP^+) is reported as 11.2 times and the “kcat/Km ratio, NAD^+ vs NADP^+” value ([3]; kcat/Km higher with NAD^+ than NADP^+) is reported as 1150 times.

B1: L. lactis NADH oxidase (H2O forming), NoxE, SEQ ID NO: 10 (Lactococcus lactis subsp. lactis Il1403) (protein)
chain: T1 sequence (Q9CIG9 1-446)
In the case of B1, the Km [4] is reported as 2951.5 ± 770 µM and the Km [5] is reported as 74.93 ± 26 µM.

B2: G. stearothermophilus pyruvate dehydrogenase complex, engineered mutant (GsPDH-NADP, PDH^NADPH), E3 mutant E206V, G207R, A208K, S213R (E3^NADPH SEQ ID NO: 7; … (protein)
chain: MVVGDFAIETETLVVGAGPGGYVAAIRAAQLGQKVTIVEKGNLGGVCLNVGCIPSKALISASHRYEQAKHSEEMGIKAENVTIDFAKVQEWKASVVKKLTGGVEGLLKGNKVEIVKGEAYFVDANTVRVVNGDSAQTYTFKNAIIATGSRPIELPNFKFSNRILDSTGALNLGEVPKSLVVIGGGYIAIELATAYANFGTKVTILVRKGEILRGFEKQMAAIIKKRLKKKGVEVVTNALAKGAEEREDGVTVTYEANGETKTIDADYVLVTVGRRPNTDELGLEQIGIKMTNRGLIEVDQQCRTSVPNIFAIGDIVPGPALAHKASYEGKVAAEAIAGHPSAVDYVAIPAVVFSDPECASVGYFEQQAKDEGIDVIAAKFPFAANGRALALNDTDGFLKLVVRKEDGVIIGAQIIGPNASDMIAELGLAIEAGMTAEDIALTIHAHPTLGEIAMEAAEVALGTPIHIITK
notes: made in house; host or cells: E. coli
Work on B2 yielded a Km [6] of 157 ± 13 µM and a Km [7] of 452.7 ± 178 µM.

B3: G. stearothermophilus pyruvate dehydrogenase complex (GsPDH-NAD+, PDH^NADH), wild type (E1a SEQ ID NO: 1, E1b SEQ ID NO: 2, E2 SEQ ID NO: 3, E3^NADH SEQ ID NO: … (protein)
chain: B2 chain with A188G, A192G, V206E, R207G, K208A, R213S
B3 showed a Km [8] of 1381 ± 410 µM and a Km [9] of 13.38 ± 0.83 µM.
